In ChEMBL document CHEMBL3885861, “Open TG-GATES”:

Organism: Rattus norvegicus
Test: Open TG-GATES - Regimen: Daily Repeat
Type: toxicity, organism-based, Sprague-Dawley
Parameters: regimen Daily Repeat, gender Male, age 6 weeks
Conditions: in vivo, po, 10 mg/kg, route gavage, dose level Low; for APTT / Bas / Eos / Fbg / Hb / Ht / Lym / MCH / MCHC / MCV / Mono / Neu / PT / Plat / RBC / Ret / WBC: tissue Blood
[1] = 72 h, tissue Kidney, time 3 day
[2] = 72 h, tissue Plasma, time 3 day

Structure (SMILES): CN(C)CCN(Cc1cccs1)c1ccccn1
- TERMINAL_BW (72 h, time 3 day): 219.5 g
- APTT (72 h, time 3 day): 21.1 s
- Bas (72 h, time 3 day): 0%
- Eos (72 h, time 3 day): 0.8%
- Fbg (72 h, time 3 day): 343 mg/dL
- Hb (72 h, time 3 day): 13 g/dL
- Ht (72 h, time 3 day): 39.1%
- Lym (72 h, time 3 day): 79%
- MCH (72 h, time 3 day): 21.6 pg
- MCHC (72 h, time 3 day): 33.2%
- MCV (72 h, time 3 day): 65 fL
- Mono (72 h, time 3 day): 1.6%
- Neu (72 h, time 3 day): 18%
- PT (72 h, time 3 day): 16 s
- Plat (72 h, time 3 day): 116.7 x10_4/uL
- RBC (72 h, time 3 day): 603.4 x10_4/ul
- Ret (72 h, time 3 day): 7%
- WBC (72 h, time 3 day): 85.5 x10_2/uL
- KIDNEY_L [1]: 1 g
- KIDNEY_R [1]: 1 g
- KIDNEY_TOTAL [1]: 2 g
- LIVER (72 h, tissue Liver, time 3 day): 10.9 g
- A/G [2]: 1.1
- ALP [2]: 1503.8 IU/L
- ALT [2]: 43.2 IU/L
- AST [2]: 72.2 IU/L
- BUN [2]: 16.8 mg/dL
- CRE [2]: 0.2 mg/dL
- Ca [2]: 10.9 mg/dL
- Cl [2]: 107 meq/L
- DBIL [2]: 0 mg/dL
- GLC [2]: 188.2 mg/dL
- IP [2]: 7.8 mg/dL
- K [2]: 4.2 meq/L
- LDH [2]: 181 IU/L
- Na [2]: 143.6 meq/L
- PL [2]: 149.8 mg/dL
- RALB [2]: 2.9 g/dL
- TBIL [2]: 0.006 mg/dL
- TC [2]: 80.6 mg/dL
- TG [2]: 108.2 mg/dL
- TP [2]: 5.6 g/dL
- gamma-GTP [2]: 1.2 IU/L
- TERMINAL_BW ([…], time 7 day): 229.9 g
- TERMINAL_BW ([…], time 14 day): 284.8 g
- TERMINAL_BW ([…], time 28 day): 353.5 g
- APTT ([…], time 7 day): 22.1 s
- Bas ([…], time 7 day): 0%
- Eos ([…], time 7 day): 1%
- Fbg ([…], time 7 day): 323.4 mg/dL
- Hb ([…], time 7 day): 13.7 g/dL
- Ht ([…], time 7 day): 40.5%
- Lym ([…], time 7 day): 82.8%
- MCH ([…], time 7 day): 20.8 pg
- MCHC ([…], time 7 day): 33.8%
- MCV ([…], time 7 day): 61.6 fL
- Mono ([…], time 7 day): 2%
- Neu ([…], time 7 day): 13.2%
- PT ([…], time 7 day): 16.4 s
- Plat ([…], time 7 day): 120.4 x10_4/uL
- RBC ([…], time 7 day): 658 x10_4/ul
- Ret ([…], time 7 day): 4.8%
- WBC ([…], time 7 day): 113.4 x10_2/uL
- APTT ([…], time 14 day): 21.3 s
- Bas ([…], time 14 day): 0%
- Eos ([…], time 14 day): 0.6%
- Fbg ([…], time 14 day): 297.6 mg/dL
- Hb ([…], time 14 day): 14.3 g/dL
- Ht ([…], time 14 day): 42.1%
- Lym ([…], time 14 day): 83.6%
- MCH ([…], time 14 day): 20.8 pg
- MCHC ([…], time 14 day): 34%
- MCV ([…], time 14 day): 61.1 fL
- Mono ([…], time 14 day): 1.6%
- Neu ([…], time 14 day): 13.2%
- PT ([…], time 14 day): 16.2 s
- Plat ([…], time 14 day): 116 x10_4/uL
- RBC ([…], time 14 day): 689.4 x10_4/ul
- Ret ([…], time 14 day): 4.6%
- WBC ([…], time 14 day): 120.5 x10_2/uL
- APTT ([…], time 28 day): 22.8 s
- Bas ([…], time 28 day): 0%
- Eos ([…], time 28 day): 1.2%
- Fbg ([…], time 28 day): 307.8 mg/dL
- Hb ([…], time 28 day): 15.3 g/dL
- Ht ([…], time 28 day): 44.4%
